# Experimental data published in PubChem BioAssay AID1259411 (Chemical Carcinogenesis Research Information System (CCRIS), 2018).
# Calls of active or inactive are those of the source. No rule for the calls is given here.
# System: rodent carcinogenicity bioassays, tumor incidence
# Assay: CCRIS carcinogenicity studies
# Summary of the method: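 Archive of carcinogenicity, mutagenicity, tumor promotion and tumor inhibition results drawn from journals, NCI reports and other sources, expert-reviewed; covers 1985-2011 and is no longer updated.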
smiles,measurement,setting,value
Nc1ccc([N+](=O)[O-])cc1,carcinogen call,"Species: MOUSE, Strain/Sex: B6C3F1/FEMALE, Route: GAVAGE, Dose: 0, 3, 30, 100 MG/KG IN CORN OIL 5 D/WK FOR 103 WK (STUDY DURATION: 104 WK), Dose: 0, 3, 30, 100 MG/KG IN CORN OIL 5 D/WK FOR 103 WK (STUDY DURATION: 104 WK)",inactive; negative
same,carcinogen call,"Species: MOUSE, Strain/Sex: B6C3F1/MALE, Route: GAVAGE, Dose: 0, 3, 30, 100 MG/KG IN CORN OIL 5 D/WK FOR 103 WK (STUDY DURATION: 104 WK), Dose: 0, 3, 30, 100 MG/KG IN CORN OIL 5 D/WK FOR 103 WK (STUDY DURATION: 104 WK), Tumor Site: Type of Lesion: LIVER: HEMANGIOSARCOMA, ALL ORGANS: HEMANGIOMA OR HEMANGIOSARCOMA",equivocal
same,carcinogen call,"Species: RAT, Strain/Sex: STRAIN CD/MALE, FEMALE, Route: GAVAGE, Dose: 0, 0.25, 1.5, 9 MG/KG IN CORN OIL 1/D 7 D/WK FOR 24 MO (STUDY DURATION: 24 MO), Dose: 0, 0.25, 1.5, 9 MG/KG IN CORN OIL 1/D 7 D/WK FOR 24 MO (STUDY DURATION: 24 MO)",inactive; negative
O=[N+]([O-])c1cc2ccc3cccc4ccc(c1)c2c34,carcinogen call,"Species: RAT, Strain/Sex: STRAIN-CD/FEMALE, Route: INJECTION, Dose: 0, 0.1 ML IN 20.3 UMOL/ML DMSO INJECTED INTO MAMMARY TISSUE OF THE 3 LEFT THORACIC NIPPLES FOLLOWED THE NEXT D BY SIMILA",inactive; negative
same,carcinogen call,"Species: RAT, Strain/Sex: STRAIN-CD/FEMALE, Route: INJECTION, Dose: 0, 0.1 ML OF A 20.3 UMOL/ML SOLUTION IN DMSO INJECTED INTO MAMMARY TISSUE UNDERLYING 3 LEFT THORACIC NIPPLES THE FOLLOWI",inactive; negative
same,carcinogen call,"Species: RAT, Strain/Sex: STRAIN-CD/FEMALE, Route: INTRAPERITONEAL, Dose: 0, 67 UMOL/KG BW IN DMSO 3/WK FOR 4 WK (STUDY DURATION: 61 WK), Tumor Site: Type of Lesion: HEMATOPOIETIC SYSTEM: LEUKEMIA, LYMPHOMA",active; positive
same,carcinogen call,"Species: RAT, Strain/Sex: STRAIN-CD/FEMALE, Route: INTRAPERITONEAL, Dose: 0, 67 UMOL/KG/BW IN 25 UMOL/ML DMSO 3/WK FOR 4 WK (TOTAL DOSE: 0; 119 UMOL) ADMINISTERED TO WEANLING RATS (STUDY DURATIO, Dose: 0, 67 UMOL/KG/BW IN 25 UMOL/ML DMSO 3/WK FOR 4 WK (TOTAL DOSE: 0; 119 UMOL) ADMINISTERED TO WEANLING RATS (STUDY DURATIO, Tumor Site: Type of Lesion: HEMATOPOIETIC SYSTEM: LEUKEMIA OR LYMPHOMA",active; positive
O=C(Nc1ccc([N+](=O)[O-])cc1Cl)c1cc(Cl)ccc1O,carcinogen call,"Species: MOUSE, Strain/Sex: B6C3F1/FEMALE, Route: ORAL, Dose: 0, 274, 549 PPM IN DIET FOR 78 WK (STUDY DURATION: 91-92 WK), Dose: 0, 274, 549 PPM IN DIET FOR 78 WK (STUDY DURATION: 91-92 WK)",inactive; negative
same,carcinogen call,"Species: RAT, Strain/Sex: OSBORNE-MENDEL/FEMALE, Route: ORAL, Dose: 0, 14216, 28433 PPM IN DIET FOR 78 WK (STUDY DURATION: 110-111 WK), Dose: 0, 14216, 28433 PPM IN DIET FOR 78 WK (STUDY DURATION: 110-111 WK), Tumor Site: Type of Lesion: MAMMARY GLAND: ADENOCARCINOMA, STOMACH: CARCINOMA",equivocal
same,carcinogen call,"Species: RAT, Strain/Sex: OSBORNE-MENDEL/MALE, Route: ORAL, Dose: 0, 14216, 28433 PPM IN DIET FOR 78 WK (STUDY DURATION: 110-111 WK), Dose: 0, 14216, 28433 PPM IN DIET FOR 78 WK (STUDY DURATION: 110-111 WK)",inactive; negative
O[C@H]1C=CC=C[C@@H]1O,carcinogen call,"Species: MOUSE, Strain/Sex: SWISS/FEMALE, Route: INTRAPERITONEAL, Dose: 0, 50 UMOL ADMINISTERED AS 3 UNEQUAL DOSES (1/7, 2/7, AND 4/7 OF THE TOTAL DOSE) OVER A 2-WK PERIOD (STUDY DURATION: 28",inactive; negative
same,carcinogen call,"Species: MOUSE, Strain/Sex: SWISS/MALE, Route: INTRAPERITONEAL, Dose: 0, 50 UMOL ADMINISTERED AS 3 UNEQUAL DOSES (1/7, 2/7, AND 4/7 OF THE TOTAL DOSE) OVER A 2-WK PERIOD (STUDY DURATION: 28",inactive; negative
CC(=O)Nc1ccc(CC(=O)O)cc1,carcinogen call,"Species: MOUSE, Strain/Sex: B6C3F1/FEMALE, Route: ORAL, Dose: 0;300, 1000, 3000 MG/KG IN DIET FOR 78 WK (STUDY DURATION: 78 WK), Dose: 0;300, 1000, 3000 MG/KG IN DIET FOR 78 WK (STUDY DURATION: 78 WK)",inactive; negative
same,carcinogen call,"Species: MOUSE, Strain/Sex: B6C3F1/MALE, Route: ORAL, Dose: 0, 300, 1000, 3000 MG/KG IN DIET FOR 78 WK (STUDY DURATION: 78 WK), Dose: 0, 300, 1000, 3000 MG/KG IN DIET FOR 78 WK (STUDY DURATION: 78 WK)",inactive; negative
same,carcinogen call,"Species: RAT, Strain/Sex: F344/FEMALE, Route: ORAL, Dose: 0, 300, 1000, 3000 MG/KG/D IN DIET FOR 104 WK (STUDY DURATION: 104 WK), Dose: 0, 300, 1000, 3000 MG/KG/D IN DIET FOR 104 WK (STUDY DURATION: 104 WK)",inactive; negative
same,carcinogen call,"Species: RAT, Strain/Sex: F344/MALE, Route: ORAL, Dose: 0, 300, 1000, 3000 MG/KG/D IN DIET FOR 104 WK (STUDY DURATION: 104 WK), Dose: 0, 300, 1000, 3000 MG/KG/D IN DIET FOR 104 WK (STUDY DURATION: 104 WK)",inactive; negative
OC1c2cc3ccc4ccccc4c3nc2C2OC2C1O (stereo unspecified),carcinogen call,"Species: MOUSE, Strain/Sex: SWISS/FEMALE, Route: INTRAPERITONEAL, Dose: 0, 1.05 UMOL GIVEN AS 150 NMOL IN 5 µL DMSO WITHIN 24 HR OF BIRTH, 300 NMOL IN 10 µL DMSO ON D 8 OF LIFE, AND 600 NMOL I",inactive; negative
same,carcinogen call,"Species: MOUSE, Strain/Sex: SWISS/MALE, Route: INTRAPERITONEAL, Dose: 0, 1.05 UMOL GIVEN AS 150 NMOL IN 5 µL DMSO WITHIN 24 HR OF BIRTH, 300 NMOL IN 10 µL DMSO ON D 8 OF LIFE, AND 600 NMOL I",inactive; negative
CN(C)C(=O)Nc1cccc(C(F)(F)F)c1,carcinogen call,"Species: MOUSE, Strain/Sex: B6C3F1/FEMALE, Route: ORAL, Dose: 0, 500, 1000 PPM IN DIET FOR 103 WK (STUDY DURATION: 103-105 WK), Dose: 0, 500, 1000 PPM IN DIET FOR 103 WK (STUDY DURATION: 103-105 WK)",inactive; negative
same,carcinogen call,"Species: MOUSE, Strain/Sex: B6C3F1/FEMALE, Route: ORAL, Dose: 0, 500, 1000 PPM IN DIET FOR 103 WK (STUDY DURATION: 103-105 WK), Dose: 0, 500, 1000 PPM IN DIET FOR 103 WK (STUDY DURATION: 103-105 WK), Tumor Site: Type of Lesion: LIVER: HEPATOCELLULAR CARCINOMA OR ADENOMA",equivocal
same,carcinogen call,"Species: Mouse, Strain/Sex: CR CD-1/Female (60/Group), Route: Oral, Dose: 0, 10, 500, 2000 ppm of 96.1% fluometuron in diet for 104 wk, study duration 104 wk, Dose: 0, 10, 500, 2000 ppm of 96.1% fluometuron in diet for 104 wk, study duration 104 wk, Tumor Site: Type of Lesion: Lymphocytic lymphoma (highest dose only)",active; positive
same,carcinogen call,"Species: Mouse, Strain/Sex: CR CD-1/Male (60/Group), Route: Oral, Dose: 0, 10, 500, 2000 ppm of 96.1% fluometuron in diet for 104 wk, study duration 104 wk, Dose: 0, 10, 500, 2000 ppm of 96.1% fluometuron in diet for 104 wk, study duration 104 wk, Tumor Site: Type of Lesion: Lung: Primary pulmonary neoplasia",active; positive
same,carcinogen call,"Species: RAT, Strain/Sex: F344/FEMALE, Route: ORAL, Dose: 0, 125, 250 PPM IN DIET FOR 103 WK (STUDY DURATION: 103-105 WK), Dose: 0, 125, 250 PPM IN DIET FOR 103 WK (STUDY DURATION: 103-105 WK)",inactive; negative
same,carcinogen call,"Species: RAT, Strain/Sex: F344/MALE, Route: ORAL, Dose: 0, 125, 250 PPM IN DIET FOR 103 WK (STUDY DURATION: 103-105 WK), Dose: 0, 125, 250 PPM IN DIET FOR 103 WK (STUDY DURATION: 103-105 WK)",inactive; negative
same,carcinogen call,"Species: Rat, Strain/Sex: Fischer 344 CD-F/Female (60/Group), Route: Oral, Dose: 0, 10, 300, 1000 ppm of 96.1% fluometuron in diet for 2 yr, study duration 2 yr, Dose: 0, 10, 300, 1000 ppm of 96.1% fluometuron in diet for 2 yr, study duration 2 yr",inactive; negative
same,carcinogen call,"Species: Rat, Strain/Sex: Fischer 344 CD-F/Male (60/Group), Route: Oral, Dose: 0, 10, 300, 1000 ppm of 96.1% fluometuron in diet for 2 yr, study duration 2 yr, Dose: 0, 10, 300, 1000 ppm of 96.1% fluometuron in diet for 2 yr, study duration 2 yr",inactive; negative
